From patent publication US8415469B2, “Compounds and methods for kinase modulation, and indications therefor” (Plexxikon Inc., priority 2005, dated 2013)

Columns and labels:
Type in all cases: biochemical
B-Raf = target: T1, B-Raf (Homo sapiens, UniProt P15056); assay: AlphaScreen kinase assay, B-Raf; settings: read-out: IC50, activity toward kinase B-Raf
T1 construct: purchased Upstate Biotechnology

Flt1 = target: T2, Flt1 (Homo sapiens, UniProt P17948); assay: AlphaScreen kinase assay, Flt1; settings: read-out: IC50, activity toward kinase Flt1
T2 construct: P1826.pETN6 BI-PTP FLT1 M799-D1165-X WT; His6 (N); made in house; host or cells: E. coli (PTP1B co-expressed)
T2 sequence (P17948 with tags, fused parts or gaps): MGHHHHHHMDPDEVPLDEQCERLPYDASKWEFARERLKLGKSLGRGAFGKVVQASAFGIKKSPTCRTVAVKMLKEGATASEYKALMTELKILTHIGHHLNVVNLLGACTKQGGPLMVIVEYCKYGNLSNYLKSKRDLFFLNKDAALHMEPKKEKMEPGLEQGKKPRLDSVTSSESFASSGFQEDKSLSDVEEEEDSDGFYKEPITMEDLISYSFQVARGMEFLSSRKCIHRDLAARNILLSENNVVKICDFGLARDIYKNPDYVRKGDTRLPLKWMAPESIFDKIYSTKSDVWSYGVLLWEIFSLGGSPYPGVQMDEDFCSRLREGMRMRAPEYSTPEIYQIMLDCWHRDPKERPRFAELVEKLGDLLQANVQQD

Fms = target: T3, Fms (Homo sapiens, UniProt P07333); assay: AlphaScreen kinase assay, Fms; settings: read-out: IC50, activity toward kinase Fms
T3 construct: purchased Upstate Biotechnology

Kit = target: T4, Kit (Homo sapiens, UniProt P10721); assay: AlphaScreen kinase assay, Kit; settings: read-out: IC50, activity toward kinase Kit
T4 construct: P1332.N6 BI PTP KIT M552-K948-X COD; His6 (N); made in house; host or cells: E. coli (PTP1B co-expressed)

B-Raf V600E = target: T5, B-Raf V600E (Homo sapiens, UniProt P15056, V600E); assay: AlphaScreen kinase assay, B-Raf V600E; settings: read-out: IC50, activity toward kinase B-Raf V600E
T5 construct: P4254. pFastBacBD-CDC37 BRAF D437-K722-X, V600E; His6 with pFastBac HT leader (TEV site) (N); made in house; host or cells: Sf9 (baculovirus; chaperone CDC37 co-expressed)

FGFR1 = target: T6, FGFR1 (Homo sapiens, UniProt P11362, C488A/C584S); assay: AlphaScreen kinase assay, FGFR1; settings: read-out: IC50, activity toward kinase FGFR
T6 construct: P1351.pET N6 BI-PTP FGFR A458-E765-X C488A, C584S; made in house; host or cells: E. coli (PTP1B co-expressed)

Measured: IC50

T3 sequence (P07333 20-972): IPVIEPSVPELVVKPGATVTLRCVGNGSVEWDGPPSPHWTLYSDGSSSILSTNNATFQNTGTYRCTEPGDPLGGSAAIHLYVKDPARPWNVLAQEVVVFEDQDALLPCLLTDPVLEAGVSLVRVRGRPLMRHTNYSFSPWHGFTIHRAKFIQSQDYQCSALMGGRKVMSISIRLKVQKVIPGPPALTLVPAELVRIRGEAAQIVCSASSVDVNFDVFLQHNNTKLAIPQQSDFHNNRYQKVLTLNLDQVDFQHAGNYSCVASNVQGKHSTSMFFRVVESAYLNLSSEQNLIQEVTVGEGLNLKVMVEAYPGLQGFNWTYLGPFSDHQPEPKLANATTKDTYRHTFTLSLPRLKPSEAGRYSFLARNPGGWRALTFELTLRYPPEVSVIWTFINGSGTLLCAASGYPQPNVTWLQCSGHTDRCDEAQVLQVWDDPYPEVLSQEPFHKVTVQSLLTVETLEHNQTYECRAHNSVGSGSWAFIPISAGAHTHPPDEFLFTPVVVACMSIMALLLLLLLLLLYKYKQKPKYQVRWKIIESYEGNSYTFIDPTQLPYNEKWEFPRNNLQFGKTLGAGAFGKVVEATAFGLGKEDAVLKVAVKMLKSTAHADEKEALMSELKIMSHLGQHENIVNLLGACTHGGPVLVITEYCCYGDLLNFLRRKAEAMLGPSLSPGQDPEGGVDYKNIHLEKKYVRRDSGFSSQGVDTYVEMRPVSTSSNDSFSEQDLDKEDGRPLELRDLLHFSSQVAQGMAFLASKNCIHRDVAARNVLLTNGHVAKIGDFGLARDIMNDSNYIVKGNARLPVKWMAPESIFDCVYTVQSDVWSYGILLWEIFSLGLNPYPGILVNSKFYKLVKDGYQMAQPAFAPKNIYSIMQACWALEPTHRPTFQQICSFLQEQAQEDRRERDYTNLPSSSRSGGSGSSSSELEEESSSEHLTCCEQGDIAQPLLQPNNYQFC
T4 sequence (P10721 with tags, fused parts or gaps): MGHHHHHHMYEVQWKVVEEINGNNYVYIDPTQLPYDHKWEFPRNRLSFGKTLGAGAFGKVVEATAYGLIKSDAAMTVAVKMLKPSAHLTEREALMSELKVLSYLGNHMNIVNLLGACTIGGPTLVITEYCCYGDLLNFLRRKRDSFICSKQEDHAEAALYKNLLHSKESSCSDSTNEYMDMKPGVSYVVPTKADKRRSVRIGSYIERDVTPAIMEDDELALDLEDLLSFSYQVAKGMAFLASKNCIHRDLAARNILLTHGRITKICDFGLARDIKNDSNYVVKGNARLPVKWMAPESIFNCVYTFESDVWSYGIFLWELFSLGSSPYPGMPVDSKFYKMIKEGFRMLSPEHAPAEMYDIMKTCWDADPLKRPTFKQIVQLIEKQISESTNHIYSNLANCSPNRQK
T5 sequence (P15056 with tags, fused parts or gaps V600E): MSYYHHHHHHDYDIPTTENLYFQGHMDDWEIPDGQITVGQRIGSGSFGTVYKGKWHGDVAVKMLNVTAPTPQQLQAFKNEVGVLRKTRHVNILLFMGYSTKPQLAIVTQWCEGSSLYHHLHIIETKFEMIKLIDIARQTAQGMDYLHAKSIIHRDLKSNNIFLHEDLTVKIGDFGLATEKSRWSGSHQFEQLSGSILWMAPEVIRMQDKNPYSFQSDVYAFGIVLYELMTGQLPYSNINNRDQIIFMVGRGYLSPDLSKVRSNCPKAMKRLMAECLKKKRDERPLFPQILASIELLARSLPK
T6 sequence (P11362 458-765 C488A/C584S): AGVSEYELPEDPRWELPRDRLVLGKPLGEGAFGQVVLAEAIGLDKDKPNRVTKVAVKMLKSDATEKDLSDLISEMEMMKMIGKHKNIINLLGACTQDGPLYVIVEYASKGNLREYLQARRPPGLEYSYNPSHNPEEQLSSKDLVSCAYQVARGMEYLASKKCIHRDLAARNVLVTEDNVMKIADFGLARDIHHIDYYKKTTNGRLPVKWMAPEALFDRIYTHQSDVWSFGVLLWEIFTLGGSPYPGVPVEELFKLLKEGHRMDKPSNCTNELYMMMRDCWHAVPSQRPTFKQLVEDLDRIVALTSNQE
T1 sequence (P15056 whole entry): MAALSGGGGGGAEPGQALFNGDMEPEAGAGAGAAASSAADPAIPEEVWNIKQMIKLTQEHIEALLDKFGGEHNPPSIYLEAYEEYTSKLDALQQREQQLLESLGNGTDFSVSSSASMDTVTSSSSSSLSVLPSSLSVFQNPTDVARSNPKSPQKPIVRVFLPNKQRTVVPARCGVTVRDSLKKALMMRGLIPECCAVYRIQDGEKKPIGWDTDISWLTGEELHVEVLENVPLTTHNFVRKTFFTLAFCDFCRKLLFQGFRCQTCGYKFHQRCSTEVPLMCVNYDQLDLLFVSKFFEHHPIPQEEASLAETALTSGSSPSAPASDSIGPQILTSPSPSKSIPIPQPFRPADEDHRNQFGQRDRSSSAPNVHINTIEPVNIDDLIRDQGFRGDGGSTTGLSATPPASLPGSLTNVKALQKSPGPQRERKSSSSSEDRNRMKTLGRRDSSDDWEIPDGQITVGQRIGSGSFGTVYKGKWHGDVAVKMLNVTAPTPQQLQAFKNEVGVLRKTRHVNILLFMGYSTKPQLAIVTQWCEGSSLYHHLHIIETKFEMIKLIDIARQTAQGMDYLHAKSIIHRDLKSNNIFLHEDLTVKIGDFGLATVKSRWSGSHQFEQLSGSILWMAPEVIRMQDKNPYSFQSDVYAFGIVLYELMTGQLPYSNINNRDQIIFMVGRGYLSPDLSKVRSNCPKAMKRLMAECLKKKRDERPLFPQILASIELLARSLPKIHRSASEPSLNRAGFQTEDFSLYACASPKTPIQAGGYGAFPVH

O=C(NCCN1CCOCC1)Nc1ccc(F)c(C(=O)c2c[nH]c3ncc(Cl)cc23)c1F [Compound P-1580, 1-[3-(5-Chloro-1H-pyrrolo[2,3-b]pyridine-3-carbonyl)-2,4-difluoro-phenyl]-3-(2-morpholin-4-yl-ethyl)-urea]
≤ 10 µM: B-Raf | Flt1 | Fms | Kit

CC(C)(C)OC(=O)N(Cc1ccc(Cl)cc1)c1ccc(C(=O)c2c[nH]c3ncccc23)cn1 [Compound P-1194]
not listed: B-Raf
≤ 10 µM: all other assays above

COc1cc(Cc2c[nH]c3ncc(Br)cc23)cc(OC)c1 [Compound P-1464, 5-Bromo-3-(3,5-dimethoxy-benzyl)-1H-pyrrolo[2,3-b]pyridine]
≤ 10 µM: FGFR1 | Flt1 | Fms | Kit

Nc1cccc(C(=O)c2c[nH]c3ncc(-c4cccc(OC(F)(F)F)c4)cc23)c1 [Compound P-1593]
≤ 10 µM: B-Raf | FGFR1 | Flt1 | Kit

CCCCNC(=O)Nc1ccc(F)c(C(=O)c2c[nH]c3ncc(Cl)cc23)c1F [Compound P-1586, 1-Butyl-3-[3-(5-chloro-1H-pyrrolo[2,3-b]pyridine-3-carbonyl)-2,4-difluoro-phenyl]-urea]
≤ 10 µM: B-Raf | B-Raf V600E | Flt1 | Fms

CC(=O)Nc1cccc(-c2cnc3[nH]cc(C(=O)c4cc(Cl)cc(Cl)c4)c3c2)c1 [Compound P-1423, N-{3-[3-(3,5-Dichloro-benzoyl)-1H-pyrrolo[2,3-b]pyridin-5-yl]-phenyl}-acetamide]
not listed: B-Raf
≤ 10 µM: all other assays above

O=C(c1c(F)ccc(NS(=O)(=O)c2cccc(C(F)(F)F)c2)c1F)c1c[nH]c2ncc(Cl)cc12 [Compound P-1599, N-[3-(5-Chloro-1H-pyrrolo[2,3-b]pyridine-3-carbonyl)-2,4-difluoro-phenyl]-3-trifluoromethyl-benzenesulfonamide]
not listed: FGFR1
≤ 10 µM: all other assays above

COc1cnc2[nH]cc(Cc3c(F)ccc(NS(=O)(=O)c4cccc(C(F)(F)F)c4)c3F)c2c1 [Compound P-1590, N-[2,4-Difluoro-3-(5-methoxy-1H-pyrrolo[2,3-b]pyridin-3-ylmethyl)-phenyl]-3-trifluoromethyl-benzenesulfonamide]
≤ 10 µM: B-Raf | B-Raf V600E | Flt1 | Kit

COC(=O)/C=C/c1cccc(-c2cnc3[nH]cc(C(=O)c4cccc(NS(C)(=O)=O)c4)c3c2)c1 [Compound P-1404]
≤ 10 µM: FGFR1 | Flt1 | Fms | Kit

CS(=O)(=O)Nc1cccc(-c2cnc3[nH]cc(C(=O)c4ccc5c(c4)OC(F)(F)O5)c3c2)c1 [Compound P-1564, N-{3-[3-(2,2-Difluoro-benzo[1,3]dioxole-5-carbonyl)-1H-pyrrolo[2,3-b]pyridin-5-yl]-phenyl}-methanesulfonamide]
not listed: B-Raf
≤ 10 µM: all other assays above

O=S(=O)(Nc1ccc(F)c(Cc2c[nH]c3ncc(Cl)cc23)c1F)c1cccc(C(F)(F)F)c1 [Compound P-1600, N-[2,4-Difluoro-3-(5-chloro-1H-pyrrolo[2,3-b]pyridin-3-ylmethyl)-phenyl]-3-trifluoromethyl-benzenesulfonamide]
≤ 10 µM: B-Raf | B-Raf V600E | Flt1

CS(=O)(=O)Nc1cccc(-c2cnc3[nH]cc(C(=O)c4cccc(C(F)(F)F)c4)c3c2)c1 [Compound P-1425, N-{3-[3-(3-Trifluoromethyl-benzoyl)-1H-pyrrolo[2,3-b]pyridin-5-yl]-phenyl}-methanesulfonamide]
≤ 10 µM: B-Raf V600E | Flt1 | Fms | Kit

CCCS(=O)(=O)Nc1ccc(F)c(C(=O)c2c[nH]c3ncc(C(=O)OC)cc23)c1F [Compound P-1552, 3-[2,6-difluoro-3-(propane-1-sulfonylamino)-benzoyl]-1H-pyrrolo[2,3-b]pyridine-5-carboxylic acid methyl ester]
not listed: FGFR1
≤ 10 µM: all other assays above

CCCCN(C)C(=O)Nc1ccc(F)c(C(=O)c2c[nH]c3ncc(Cl)cc23)c1F [Compound P-1612, 1-Butyl-3-[3-(5-chloro-1H-pyrrolo[2,3-b]pyridine-3-carbonyl)-2,4-difluoro-phenyl]-1-methyl-urea]
≤ 10 µM: B-Raf | B-Raf V600E | Flt1 | Fms

COc1cc(OC)cc(C(O)c2c[nH]c3ncc(Br)cc23)c1 (centres unmarked) [Compound P-1460]
≤ 10 µM: FGFR1 | Flt1 | Fms | Kit

CS(=O)(=O)Nc1cccc(-c2cnc3[nH]cc(C(=O)c4cc(F)cc(C(F)(F)F)c4)c3c2)c1 [Compound P-1427, N-{3-[3-(3-Fluoro-5-trifluoromethyl-benzoyl)-1H-pyrrolo[2,3-b]pyridin-5-yl]-phenyl}-methanesulfonamide]
≤ 10 µM: Flt1 | Fms | Kit

Cc1c(NS(=O)(=O)N(C)C)cccc1C(=O)c1c[nH]c2ncc(Br)cc12 [Compound P-1609]
not listed: Kit
≤ 10 µM: all other assays above

CS(=O)(=O)Nc1ccc(F)c(Cc2c[nH]c3ncc(-c4cccnc4)cc23)c1F [Compound P-1605, N-[2,4-Difluoro-3-(5-pyridin-3-yl-1H-pyrrolo[2,3-b]pyridin-3-ylmethyl)-phenyl]-methanesulfonamide]
not listed: Fms
≤ 10 µM: all other assays above

OC(c1c(Cl)ccc(OCC(F)(F)F)c1F)c1c[nH]c2ncc(Br)cc12 (centres unmarked) [Compound P-1393, (5-Bromo-1H-pyrrolo[2,3-b]pyridin-3-yl)-[6-chloro-2-fluoro-3-(2,2,2-trifluoro-ethoxy)-phenyl]-methanol]
≤ 10 µM: FGFR1 | Flt1 | Fms | Kit

c1ccc(Cc2cccc(Nc3c[nH]c4ncccc34)c2)cc1 [Compound P-1497, (3-Benzyl-phenyl)-(1H-pyrrolo[2,3-b]pyridin-3-yl)-amine]
≤ 10 µM: Flt1 | Fms | Kit

CS(=O)(=O)Nc1cccc(-c2cnc3[nH]cc(C(=O)c4cccc(OC(F)(F)F)c4)c3c2)c1 [Compound P-1428, N-{3-[3-(3-Trifluoromethoxy-benzoyl)-1H-pyrrolo[2,3-b]pyridin-5-yl]-phenyl}-methanesulfonamide]
≤ 10 µM: FGFR1 | Flt1 | Fms | Kit

COc1cnc2[nH]cc(C(=O)c3c(F)ccc(NS(=O)(=O)c4ccc(F)cc4)c3F)c2c1 [Compound P-1582, N-[2,4-Difluoro-3-(5-methoxy-1H-pyrrolo[2,3-b]pyridine-3-carbonyl)-phenyl]-4-fluoro-benzenesulfonamide]
not listed: Fms
≤ 10 µM: all other assays above

COc1ccnc2[nH]cc(Cc3ccc(NCc4ccc(C(F)(F)F)cc4)nc3)c12 [Compound P-1110]
≤ 10 µM: B-Raf | FGFR1 | Flt1 | Fms

CCCS(=O)(=O)Nc1cccc(C(=O)c2c[nH]c3ncc(Br)cc23)c1C [Compound P-1608]
not listed: Kit
≤ 10 µM: all other assays above

COc1cc(OC)cc(C(=O)c2c[nH]c3ncc(Br)cc23)c1 [Compound P-1463, (5-Bromo-1H-pyrrolo[2,3-b]pyridin-3-yl)-(3,5-dimethoxy-phenyl)-methanone]
≤ 10 µM: FGFR1 | Flt1 | Fms | Kit

COc1cc(OC)cc(C(OC)c2c[nH]c3ncc(Br)cc23)c1 (centres unmarked) [Compound P-1461]
≤ 10 µM: FGFR1 | Flt1 | Fms | Kit
